Read-outs that look alike come from different tables or passages of the source.
Columns and labels:
[1] = Cytotoxicity dose response, U87; type: cell-based; conditions: human, U87 (glial) cells, unit not given in Table S3, drug concentrations in µM, read-out: CC50 U87 cell line
Method: (§1) B. mandrillaris trophozoites were seeded at 4,000 amoebae per well into opaque and clear-bottom 96-well plates (Corning). Homogenous populations of B. mandrillaris cysts generated by galactose induction were seeded at 4,000 amoebae per well into opaque 96-well plates. HFF-1 (fibroblast), H4 (glial), U87 (glial), HEK-293T (kidney), and Hep-G2 (liver) cells were seeded at 3,000 cells per well in opaque 96-well plates 24 h prior to addition of drug. Stocks of nitroxoline (Selleck Chemicals) were dissolved in 100% DMSO at 10 mM. Stocks of azithromycin (Selleck Chemicals), pentamidine isethionate (Selleck Chemicals), and miltefosine (Selleck Chemicals) were dissolved in water at 10 mM. Drug stocks were serially diluted in water to generate 12-point dilution series, which were then used to treat assay wells containing B. mandrillaris or human cells at final concentrations ranging from 0.39 µM to 400 µM in 100-µl total well volumes. Control wells were treated with vehicle (DMSO or water) at concentrations corresponding to the final vehicle concentrations in each drug dilution series. After incubation for 72 h, 50 µl of CTG was added to all assay wells. Luminescence was measured with a Promega GloMax-Multi+ plate reader 2, 4, and […] after CTG addition. All dose-response experiments were performed with at least three independent biological replicates. IC50 values were determined as previously described. To quantify encystment under treated and untreated conditions, amoebae in individual assay wells were resuspended thoroughly and the number of cysts and number of trophozoites in 10-µl samples were counted by the use of a hemocytometer (SKC, Inc.). Cysts and trophozoites are morphologically distinct, making them simple to distinguish with bright-field microscopy (example images are shown in Fig. S1 in the supplemental material). Encystment assays were performed with three independent biological replicates.

[2] = system: B. mandrillaris trophozoites; test: Primary human brain tissue explant infection model; type: cell-based, Balamuthia mandrillaris; conditions: 35 μM simultaneously with inoculation, removed at 20 h, evaluated at 96 h
B. mandrillaris [3] = test: Encystment assay, counts of cysts and trophozoites; type: cell-based, Balamuthia mandrillaris; conditions: 72 h of treatment with different drug concentrations
Method: as §1

B. mandrillaris [4] = test: Recrudescence assay on HFF-1 monolayer after drug treatment; type: cell-based, Balamuthia mandrillaris
[5] = Cytotoxicity dose response, HEK-293T; type: cell-based; conditions: human, HEK-293T (kidney) cells, unit not given in Table S3, drug concentrations in µM, read-out: CC50 HEK-293T cell line
Method: as §1

[6] = system: H4 human neuroglioma cells; test: Secondary screening dose response, toxicity to H4 cells; type: cell-based; conditions: Homo sapiens; 72 h; approximated from dose-response curves
[7] = system: B. mandrillaris trophozoites; test: Drug combination dose matrices, trophozoite viability (EOHSA model); type: cell-based, Balamuthia mandrillaris; conditions: 72 h
Method: Experiments measuring the effect of drug combinations were carried out similarly to the dose-response experiments described above. B. mandrillaris trophozoites were seeded into opaque 96-well plates (Corning) at a density of 4,000 amoebae per well and then treated with concentrations of nitroxoline that differed across the rows of each plate and with concentrations of either miltefosine or pentamidine isethionate that differed down the columns to generate 7-by-7 dose combination matrices. Final drug concentrations ranged from 0.5 to 10 µM, from 10 to 100 µM, and from 1 to 100 µM for nitroxoline, miltefosine, and pentamidine isethionate, respectively. After incubation with drug or vehicle was performed for 72 h, CTG was added to all assay wells and luminescence was measured with a Promega Glomax-Multi+ plate reader. The percent effect of each drug combination was calculated as the reduction in luminescence value relative to vehicle-only controls. The additive effect of drug combinations was assessed using the excess over highest single agent (EOHSA) model ([76], [77]). […] Drug combination experiments were performed with three independent replicates.

[8] = set-up: method as in PMID 3309832, PMID 118941, PMID 7251741; conditions: adults, 600 to 800 mg/day, cited from earlier work
B. mandrillaris cysts = test: Dose response, viability of preformed galactose-induced cysts; type: cell-based, Balamuthia mandrillaris; conditions: 72 h
Method: Following the findings of a previous study, encystment of B. mandrillaris was induced by galactose exposure ([74]). B. mandrillaris trophozoites were grown to log phase in axenic media, and galactose was added to reach a final concentration of 12% (vol/vol). Amoebae were cultured in the induction medium until trophozoites were no longer observed (approximately 10 days). Galactose-induced cysts transition back to trophozoites after approximately 3 days of incubation in galactose-free axenic medium. Therefore, all assays with cysts were completed in the induction medium. […] All incubation steps for B. mandrillaris growth were carried out at 37°C with 5% CO2.
as §1

[9] = system: HFF-1 human fibroblast cells; test: Secondary screening dose response, toxicity to HFF-1 cells; type: cell-based; conditions: Homo sapiens, HFF-1; 72 h; approximated from dose-response curves; read-out: HFF1 IC50
Method: (§2) Secondary screening of hit compounds consisted of dose-response experiments to measure the toxicity of each compound to B. mandrillaris trophozoites, HFF-1 human fibroblast cells, and H4 human neuroglioma cells. Four 384-well plates were prepared prior to addition of drug as follows: one opaque plate (Corning) seeded with 3,000 HFF-1 cells per well in 60 µl complete media, one opaque plate seeded with 2,000 H4 cells per well in 60 µl complete media, one opaque plate containing 30 µl axenic media, and one clear plate (Corning) containing 30 µl axenic media. Opaque plates were used to measure the viability of trophozoites in the CTG assay, and clear plates were used for microscopic examination of cyst formation. HFF-1 and H4 plates were seeded 24 h prior to drug addition. The selected primary screen hits were added from 10 mM DMSO stocks into wells of all four test plates to reach final concentrations ranging from 0.06 µM to 30 µM (10 concentrations, 2-fold serial dilution). Negative-control wells received concentrations of DMSO corresponding to the amount of DMSO in each tested drug well (reaching a maximum of 0.3% DMSO). B. mandrillaris trophozoites were resuspended in axenic media and added to the plates containing drug dilutions in axenic media at a density of 3,000 amoebae per well in a final volume of 60 µl media. All plates were incubated for 72 h. Throughout the incubation period, the clear-bottom B. mandrillaris plate was monitored for large-scale changes to population encystment in response to drug treatment. After the 72-h incubation, 30 µl of CTG reagent was added to all wells of the opaque assay plates and luminescence was measured with a Promega GloMax-Multi+ plate reader at 2, 4, and 8 h after CTG addition.

[10] = Cytotoxicity, mean of all cell lines; type: cell-based; conditions: human, U87, H4, HEK-293T, HFF-1 and Hep-G2 cell lines (mean of all), unit inferred
Method: as §1

[11] = Cytotoxicity dose response, HFF-1; type: cell-based; conditions: human, HFF-1 (fibroblast) cells, unit not given in Table S3, drug concentrations in µM, read-out: CC50 HFF-1 cell line
Method: as §1

[12] = Cytotoxicity dose response, Hep-G2; type: cell-based; conditions: human, Hep-G2 (liver) cells, unit not given in Table S3, drug concentrations in µM, read-out: CC50 Hep-G2 cell line
Method: as §1

[13] = system: B. mandrillaris trophozoites; test: Secondary screening dose response, B. mandrillaris trophozoites; type: cell-based, Balamuthia mandrillaris; conditions: Balamuthia mandrillaris, 72 h, read-out: B. mandrillaris IC50
Method: as §2

gliomas = system: gliomas; set-up: method as in PMID 25074541; conditions: systemically delivered; cited from earlier work
[14] = system: B. mandrillaris trophozoites; test: Side-by-side dose response, trophozoite viability; type: cell-based, Balamuthia mandrillaris; conditions: 72 h
Method: as §1

[15] = Cytotoxicity dose response, H4; type: cell-based; conditions: human, H4 (glial) cells, unit not given in Table S3, drug concentrations in µM, read-out: CC50 H4 cell line
Method: as §1

[16] = system: B. mandrillaris trophozoites; test: microbe, parasite or virus in culture; type: cell-based, Balamuthia mandrillaris; conditions: Balamuthia mandrillaris, 72 h
[17] = system: B. mandrillaris trophozoites; test: Nitroxoline structure-activity relationship dose response (CellTiter Glo); type: cell-based, Balamuthia mandrillaris; conditions: Balamuthia mandrillaris, 72 h, 8-point dose response in triplicate; read-out: IC50

O=[N+]([O-])c1ccc(O)c2ncccc12 [Nitroxoline, 8-hydroxy-5-nitroquinoline]
CC50 at 72 h [1]: 24.9 µM | protection of human brain tissue explants [2]: do not show signs of tissue damage or loss of cell density | encystment response (B. mandrillaris [3]): increase in both the total number and the proportion of cysts | Mean no. of days for host cell clearance ± SE (B. mandrillaris [4]; 3.5 µM for 72 h, then drug-free coculture with HFF-1, 28-day experiment): 15.33 ± 0.67 days | Mean no. of days for host cell clearance ± SE (B. mandrillaris [4]; 7 µM for 72 h, then drug-free coculture with HFF-1, 28-day experiment): 19 ± 0.58 days | Mean no. of days for host cell clearance ± SE (B. mandrillaris [4]; 14 µM for 72 h, then drug-free coculture with HFF-1, 28-day experiment): 22 ± 2.08 days | Mean no. of days for host cell clearance ± SE (B. mandrillaris [4]; 28 µM for 72 h, then drug-free coculture with HFF-1, NRT = no recovery of trophozoites or host cell destruction observed through 28 days): NRT^a | concentration that completely eliminated B. mandrillaris populations (B. mandrillaris [4]; 72 h treatment, no recovery after 28 days of coculture): 28 µM | CC50 at 72 h [5]: 4.9 µM | IC50 [6]: 7 µM | Percent inhibition of B. mandrillaris viability ([7]; Fig S2A, nitroxoline 0.5 µM alone): -4% | Percent inhibition of B. mandrillaris viability ([7]; Fig S2A, nitroxoline 2 µM alone): 28% | Percent inhibition of B. mandrillaris viability ([7]; Fig S2A, nitroxoline 2.5 µM alone): 31% | Percent inhibition of B. mandrillaris viability ([7]; Fig S2A, nitroxoline 3 µM alone): 34% | Percent inhibition of B. mandrillaris viability ([7]; Fig S2A, nitroxoline 5 µM alone): 92% | Percent inhibition of B. mandrillaris viability ([7]; Fig S2A, nitroxoline 10 µM alone): 93% | Percent inhibition of B. mandrillaris viability ([7]; Fig S2B, nitroxoline 0.5 µM alone): 0% | Percent inhibition of B. mandrillaris viability ([7]; Fig S2B, nitroxoline 2 µM alone): 28% | Percent inhibition of B. mandrillaris viability ([7]; Fig S2B, nitroxoline 2.5 µM alone): 33% | Percent inhibition of B. mandrillaris viability ([7]; Fig S2B, nitroxoline 3 µM alone): 32% | Percent inhibition of B. mandrillaris viability ([7]; Fig S2B, nitroxoline 5 µM alone): 91% | Percent inhibition of B. mandrillaris viability ([7]; Fig S2B, nitroxoline 10 µM alone): 92% | maximal plasma concentrations (Cmax) [8]: ~5600 ng/mL | Cmax ([8]; read-out: maximal plasma concentrations (Cmax)): ~30 µM | IC50 (B. mandrillaris cysts; Balamuthia mandrillaris, read-out: IC50, B. mandrillaris cysts, preformed cysts, 12% galactose induction medium, 72 h): 15.5 µM | IC50 (B. mandrillaris cysts; preformed cysts, 12% galactose induction medium, read-out: IC50, B. mandrillaris cysts): 15.5 µM | IC50 [9]: > 30 µM | CC50 at 72 h [10]: 19.3 µM | CC50 at 72 h [11]: 51.8 µM | CC50 at 72 h [12]: 9.3 µM | IC50 [13]: 11 µM | efficacy against gliomas (gliomas): exhibits efficacy against gliomas in mice | IC99, B. mandrillaris trophozoite viability [14]: 7.54 µM | IC50 ([14]; Balamuthia mandrillaris, read-out: IC50, B. mandrillaris trophozoites, 72 h): 2.8 µM | IC50 ([14]; read-out: IC50, B. mandrillaris trophozoites): 2.84 µM | CC50 at 72 h [15]: 5.6 µM | inhibition at 20 µM [16]: 100% | IC50 [17]: 4.77 µM

— article PMC6212833 (mBio, 2018)
